Test system: HCV genotype 1b replicon
Assay: HCV replicon assay, cell ELISA with antibody to replicon-encoded NS3/4A (genotype 1b replicon)
Assay type: cell-based, hepatitis C virus
Conditions: Hepatitis C virus, 96 h, read-out: 1b IC50(nM), HCV genotype 1b replicon; 96 hours incubation; NS3/4A cell ELISA
Outline: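 An ELISA on lysed cells, using an antibody against NS3/4A protease, served as the proxy for replicon RNA. Cells had first been exposed for 96 h to serially diluted compound in G418-free conditions. Percent of DMSO control was fitted with a four-parameter function to give IC50.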

Row | Structure (SMILES) | IC50
1 | CNC(=O)c1c(-c2ccc(F)cc2)oc2cc(N(C)S(C)(=O)=O)c(-c3ccc4c(c3)-c3c(Cl)c5ccccc5n3C(C3CC3)O4)cc12 (stereo not shown) [Example 588] | 50.4 nM
2 | CNC(=O)c1c(-c2ccc(F)cc2)oc2cc(N(C)S(C)(=O)=O)c(-c3cccc(-n4nc5ccccc5c4-c4cccnc4)c3)cc12 [Example 549] | 65.9 nM
3 | CNC(=O)c1c(-c2ccc(F)cc2)oc2cc(N(CCF)S(C)(=O)=O)c(-c3ccc(OC)c(-c4nc5ncccc5o4)c3)cc12 [Example 870] | 1.3 nM
4 | CNC(=O)c1c(-c2ccc(F)cc2)oc2cc(N(C)S(C)(=O)=O)c(-c3ccc(OC)c(-c4nc5cc(F)cc(F)c5o4)c3)cc12 [Example 551] | 1.3 nM
5 | CNC(=O)c1c(-c2ccc(F)cc2)oc2cc(N(C3COC3)S(C)(=O)=O)c(-c3ccc(OC)c(-c4nc5c(F)cc(F)cc5o4)c3)cc12 [Example 721] | 4.94 nM
6 | CNC(=O)c1c(-c2ccc(F)cc2)oc2cc(N(C)S(C)(=O)=O)c(-c3ccc(O)c(-c4nc5c(Cl)cccc5o4)c3)cc12 [Example 607] | 27.1 nM
7 | CNC(=O)c1c(-c2ccc(F)cc2)oc2cc(N(CC3CCS(=O)(=O)C3)S(C)(=O)=O)c(-c3ccc(OC)c(-c4nc5c(F)cc(F)cc5o4)c3)cc12 (stereo not shown) [Example 718] | 3.9 nM
8 | CNC(=O)c1c(-c2ccc(F)cc2)oc2cc(N(C)S(C)(=O)=O)c(-c3ccc(OC)c(-c4cc5ccc(F)cc5s4)c3)cc12 [Example 687] | 27.3 nM
9 | CNC(=O)c1c(-c2ccc(F)cc2)oc2cc(N(C)S(C)(=O)=O)c(-c3cc(-c4nc5ncccc5o4)ccn3)cc12 [Example 509] | 3 nM
10 | CNC(=O)c1c(-c2ccc(F)cc2)oc2cc(N(CCF)S(C)(=O)=O)c(-c3ccc(OC)c(-c4nc5cccc(F)c5o4)c3)cc12 [Example 871] | 3.5 nM
11 | CNC(=O)c1c(-c2ccc(F)cc2)oc2cc(N(CC3(C)COC3)S(C)(=O)=O)c(-c3ccc(OC)c(-c4nc5c(F)cc(F)cc5o4)c3)cc12 [Example 725] | 10.5 nM
12 | CNC(=O)c1c(-c2ccc(F)cc2)oc2cc(N(CC(C)(C)F)S(C)(=O)=O)c(-c3ccc(OC)c(-c4nc5c(F)cc(F)cc5o4)c3)cc12 [Example 791] | 28.5 nM

Same assay, conditions: Hepatitis C virus, 96 h, read-out: Replicon 1b IC50 (nM), HCV genotype 1b replicon cells, 96 hours incubation, NS3/4A ELISA readout

Row | Structure (SMILES) | IC50
13 | CNC(=O)c1c(-c2ccc(F)cc2)oc2cc(N(C)S(C)(=O)=O)c(-c3cc(F)cc(-c4nc5cccnc5o4)c3)cc12 [Example 218] | 1.8 nM
14 | CNC(=O)c1c(-c2ccc(F)cc2)oc2cc(N(C)S(C)(=O)=O)c(-c3cc(OC)cc(-c4nc5cccnc5s4)c3)cc12 [Example 249] | 2.2 nM
15 | CNC(=O)c1c(-c2ccc(F)cc2)oc2cc(N(C)S(C)(=O)=O)c(-c3cc(-c4nc5ncccc5o4)ccc3Cl)cc12 [Example 204] | 4.5 nM
16 | CNC(=O)c1c(-c2ccc(F)cc2)oc2cc(N(C)S(C)(=O)=O)c(-c3ccc(F)c(-c4nc5ccc(F)cc5s4)c3)cc12 [Example 293] | 8.6 nM
17 | CNC(=O)c1c(-c2ccc(F)cc2)oc2cc(N(C)S(C)(=O)=O)c(-c3ccc(OC)c(-c4nc5cc(Cl)cnc5o4)c3)cc12 [Example 226] | 4 nM
18 | CNC(=O)c1c(-c2ccc(F)cc2)oc2cc(N(C)S(C)(=O)=O)c(-c3cccc(-c4nc5ccncc5o4)c3)cc12 [Example 216] | 8.2 nM
19 | CNC(=O)c1c(-c2ccc(F)cc2)oc2cc(N(C)S(C)(=O)=O)c(-c3cccc(-c4nc5ccc(=O)[nH]c5s4)c3)cc12 [Example 252] | 78.2 nM
20 | CNC(=O)c1cccc(-c2cc3c(C(=O)NC)c(-c4ccc(F)cc4)oc3cc2N(C)S(C)(=O)=O)c1 [Example 100, 2-(4-fluorophenyl)-N-methyl-5-[3-(methylcarbamoyl)phenyl]-6-[methyl(methylsulfonyl)amino]-1-benzofuran-3-carboxamide] | 45 nM
21 | CNC(=O)c1c(-c2ccc(F)cc2)oc2cc(N(C)S(C)(=O)=O)c(-c3cc(OC)cc(-c4nc5c(C)ccnc5[nH]4)c3)cc12 [Example 316] | 2.8 nM
22 | CNC(=O)c1c(-c2ccc(F)cc2)oc2cc(N(C)S(C)(=O)=O)c(-c3ccc(OC)c(-c4nc5cccnc5s4)c3)cc12 [Example 271] | 1.5 nM
23 | CNC(=O)c1c(-c2ccc(F)cc2)oc2cc(N(CCO)S(C)(=O)=O)c(-c3cc(F)cc(-c4nc5ncccc5o4)c3)cc12 [Compound 386] | 1.3 nM
24 | CNC(=O)c1c(-c2ccc(F)cc2)oc2cc(N(C)S(C)(=O)=O)c(-c3ccccc3)cc12 [Example 1, 2-(4-fluorophenyl)-N-methyl-6-[methyl(methylsulfonyl)amino]-5-phenyl-1-benzofuran-3-carboxamide] | 120 nM
25 | CNC(=O)c1c(-c2ccc(F)cc2)oc2cc(N(C)S(C)(=O)=O)c(-c3cccc(-c4nc5cc(Cl)ccc5s4)c3)cc12 [Example 148, 5-[3-(5-chloro-1,3-benzothiazol-2-yl)phenyl]-2-(4-fluorophenyl)-N-methyl-6-[methyl (methylsulfonyl)amino]-1-benzofuran-3-carboxamide] | 9 nM
26 | CNC(=O)c1c(-c2ccc(F)cc2)oc2cc(N(C)S(C)(=O)=O)c(-c3cc(OC)cc(-c4nc5nccnc5[nH]4)c3)cc12 [Example 339] | 4 nM
27 | CNC(=O)c1c(-c2ccc(F)cc2)oc2cc(N(C)S(C)(=O)=O)c(-c3cc(F)cc(-c4nc5ccc(C)cc5o4)c3)cc12 [Example 166] | 4.4 nM
28 | CNC(=O)c1c(-c2ccc(F)cc2)oc2cc(N(C)S(C)(=O)=O)c(-c3ccc(Cl)c(-c4nc5nccnc5[nH]4)c3)cc12 [Example 340] | 15.8 nM
29 | CNC(=O)c1c(-c2ccc(F)cc2)oc2cc(N(C)S(C)(=O)=O)c(-c3ccc(OC)c(-c4nc5cc(Cl)ccc5o4)c3)cc12 [Example 187] | 2.6 nM
30 | CNC(=O)c1c(-c2ccc(F)cc2)oc2cc(N(C)S(C)(=O)=O)c(-c3ccc(OCCO)c(-c4nc5ncccc5o4)c3)cc12 [Example 237] | 2.6 nM
31 | CNC(=O)c1c(-c2ccc(F)cc2)oc2cc(N(C)S(C)(=O)=O)c(-c3ccc(OC)c(-c4nc5cccnc5o4)c3)cc12 [Example 225] | 3.6 nM
32 | CNC(=O)c1c(-c2ccc(F)cc2)oc2cc(N(C)S(C)(=O)=O)c(-c3cccc(-c4nc5ccc(NS(C)(=O)=O)cc5o4)c3)cc12 [Example 281, 2-(4-fluorophenyl)-N-methyl-6-(N-methylmethylsulfonamido)-5-(3-(6-(methylsulfonamido)benzo[d]oxazol-2-yl)phenyl)benzofuran-3-carboxamide] | 3.3 nM
33 | CCN(c1cc2oc(-c3ccc(F)cc3)c(C(=O)NC)c2cc1-c1ccccc1)S(C)(=O)=O [Example 5, 6-[ethyl (methylsulfonyl)amino]-2-(4-fluorophenyl)-N-methyl-5-phenyl-1-benzofuran-3-carboxamide] | 47 nM
34 | CONC(=O)c1cccc(-c2cc3c(C(=O)NOC)c(-c4ccc(F)cc4)oc3cc2N(C)S(C)(=O)=O)c1 [Example 99, 2-(4-fluorophenyl)-N-methoxy-5-[3-(methoxycarbamoyl)phenyl]-6-[methyl(methylsulfonyl)amino]-1-benzofuran-3-carboxamide] | 623 nM
35 | CNC(=O)c1c(-c2ccc(F)cc2)oc2cc(N(C)S(C)(=O)=O)c(-c3cccc(-c4nc5ccc(NC(=O)c6ccccc6)cc5o4)c3)cc12 [Example 283] | 17.2 nM
36 | CNC(=O)c1c(-c2ccc(F)cc2)oc2cc(N(C)S(C)(=O)=O)c(-c3ccc(OC)c(-c4nc5c(N)ncnc5[nH]4)c3)cc12 [Example 349] | 5.7 nM
37 | CNC(=O)c1c(-c2ccc(F)cc2)oc2cc(N(C)S(C)(=O)=O)c(-c3cccc(-c4nc5c(C)cccc5o4)c3)cc12 [Example 173] | 5.6 nM

From patent US20120328569A1, “INHIBITORS OF HEPATITIS C VIRUS NS5B POLYMERASE” (priority 2010, published 2012)
